Source: PubChem BioAssay (NCI)
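GI50 is the concentration that inhibits growth by half. Definition used: TGI = concentration required for complete inhibition of growth.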

Key:
Assay in all cases: DTP human tumour cell line panel, 384-well format
[1] = test system: HS 578T breast
[2] = test system: CCRF-CEM leukemia
[3] = test system: HCT-116 colon
[4] = test system: UACC-62 melanoma
[5] = test system: SK-MEL-28 melanoma
[6] = test system: SF-295 CNS
[7] = test system: SR leukemia
[8] = test system: UACC-257 melanoma
[9] = test system: IGROV1 ovarian
[10] = test system: SK-MEL-5 melanoma
[11] = test system: 786-0 renal
[12] = test system: OVCAR-3 ovarian
[13] = test system: UO-31 renal
[14] = test system: HCC-2998 colon
[15] = test system: PC-3 prostate
[16] = test system: EKVX NSCLC
[17] = test system: HOP-92 NSCLC
[18] = test system: MCF7 breast
[19] = test system: CAKI-1 renal
[20] = test system: MDA-MB-468 breast
[21] = test system: KM12 colon
[22] = test system: A549 NSCLC
[23] = test system: LOX IMVI melanoma
[24] = test system: SNB-19 CNS
[25] = test system: NCI-H23 lung
[26] = test system: SK-MEL-2 melanoma
[27] = test system: SN12C renal
[28] = test system: TK-10 renal
[29] = test system: M14 melanoma
[30] = test system: RXF 393 renal

Question: `Cc1cc(Nc2nc(N[C@@H](C)c3ncc(F)cn3)ncc2Cl)n[nH]1` was tested. Which TGI [1] did it give?
Answer: 29.9 µM

Question: What about the GI50 [2] of the same molecule?
Answer: 20.7 µM

Question: What about the TGI [2] of the same molecule?
Answer: 45.1 µM

Question: What about the GI50 [3] of the same molecule?
Answer: 17.4 µM

Question: What about the TGI [3] of the same molecule?
Answer: > 100 µM

Question: And the GI50 [4]?
Answer: 40.7 µM

Question: What about the TGI [4] of the same molecule?
Answer: > 100 µM

Question: And the GI50 [5]?
Answer: 59.1 µM

Question: And the TGI [5]?
Answer: > 100 µM

Question: What about the GI50 [6] of the same molecule?
Answer: 47.4 µM

Question: What about the TGI [6] of the same molecule?
Answer: > 100 µM

Question: And the GI50 [7]?
Answer: 5.01 µM

Question: What about the TGI [7] of the same molecule?
Answer: 12.2 µM

Question: And the GI50 [8]?
Answer: > 100 µM

Question: And the TGI [8]?
Answer: > 100 µM

Question: What about the GI50 [9] of the same molecule?
Answer: 27.8 µM

Question: What about the TGI [9] of the same molecule?
Answer: > 100 µM

Question: What about the GI50 [10] of the same molecule?
Answer: 30.5 µM

Question: And the TGI [10]?
Answer: > 100 µM

Question: And the GI50 [11]?
Answer: 33.6 µM

Question: And the TGI [11]?
Answer: > 100 µM

Question: What about the GI50 [12] of the same molecule?
Answer: 43.8 µM

Question: What about the TGI [12] of the same molecule?
Answer: > 100 µM

Question: And the GI50 [13]?
Answer: 36.7 µM

Question: And the TGI [13]?
Answer: > 100 µM

Question: What about the GI50 [14] of the same molecule?
Answer: 28.3 µM

Question: And the TGI [14]?
Answer: > 100 µM

Question: And the GI50 [15]?
Answer: 42.1 µM

Question: And the TGI [15]?
Answer: > 100 µM

Question: And the GI50 [16]?
Answer: 23.9 µM

Question: And the TGI [16]?
Answer: 79.3 µM

Question: What about the GI50 [17] of the same molecule?
Answer: 27.8 µM

Question: And the TGI [17]?
Answer: 91.3 µM

Question: What about the GI50 [18] of the same molecule?
Answer: 44.3 µM

Question: What about the TGI [18] of the same molecule?
Answer: > 100 µM

Question: What about the GI50 [19] of the same molecule?
Answer: 23.7 µM

Question: What about the TGI [19] of the same molecule?
Answer: > 100 µM

Question: And the GI50 [20]?
Answer: 17.3 µM

Question: What about the TGI [20] of the same molecule?
Answer: 33.1 µM

Question: What about the GI50 [21] of the same molecule?
Answer: 0.381 µM

Question: What about the TGI [21] of the same molecule?
Answer: > 100 µM

Question: And the GI50 [22]?
Answer: 30.4 µM

Question: What about the TGI [22] of the same molecule?
Answer: > 100 µM

Question: What about the GI50 [23] of the same molecule?
Answer: 27.6 µM

Question: And the TGI [23]?
Answer: 71 µM

Question: And the GI50 [24]?
Answer: 47.5 µM

Question: And the TGI [24]?
Answer: > 100 µM

Question: What about the GI50 [25] of the same molecule?
Answer: 35.2 µM

Question: And the TGI [25]?
Answer: > 100 µM

Question: What about the GI50 [26] of the same molecule?
Answer: 44.7 µM

Question: What about the TGI [26] of the same molecule?
Answer: 85.1 µM

Question: What about the GI50 [27] of the same molecule?
Answer: 31.3 µM

Question: And the TGI [27]?
Answer: > 100 µM

Question: And the GI50 [28]?
Answer: 34.6 µM

Question: What about the TGI [28] of the same molecule?
Answer: > 100 µM

Question: And the GI50 [29]?
Answer: 61.7 µM

Question: What about the TGI [29] of the same molecule?
Answer: > 100 µM

Question: And the GI50 [30]?
Answer: 18.9 µM

Question: What about the TGI [30] of the same molecule?
Answer: 46 µM
